A value given as a limit tells only on which side of the number the result lay.

The target of the first assay is S1P1 (Homo sapiens, UniProt P21453). The assay is described as follows: CNG cAMP Assay (Assay 1). In kind it is cell-based. Set-up: host or cells: HEK293 cells expressing the CNG channel. To be noted: footnote 1: Relative EC50 was measured, read-out: Assay 1 Relative EC50. An outline of the steps: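 cAMP-gated CNG membrane-potential read-out (350/590 nm, T90/T0 ratio) in S1P1/CNG HEK293 cells after 90 min with compound plus NECA 500 nM, S1P 10 nM (EC95), Ro 20-1724 25 μM. Ten 3-fold points from 10 μM, 1.8% DMSO; percent activity vs NECA-only control gives EC50.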
S1P1, sequence (P21453 whole entry): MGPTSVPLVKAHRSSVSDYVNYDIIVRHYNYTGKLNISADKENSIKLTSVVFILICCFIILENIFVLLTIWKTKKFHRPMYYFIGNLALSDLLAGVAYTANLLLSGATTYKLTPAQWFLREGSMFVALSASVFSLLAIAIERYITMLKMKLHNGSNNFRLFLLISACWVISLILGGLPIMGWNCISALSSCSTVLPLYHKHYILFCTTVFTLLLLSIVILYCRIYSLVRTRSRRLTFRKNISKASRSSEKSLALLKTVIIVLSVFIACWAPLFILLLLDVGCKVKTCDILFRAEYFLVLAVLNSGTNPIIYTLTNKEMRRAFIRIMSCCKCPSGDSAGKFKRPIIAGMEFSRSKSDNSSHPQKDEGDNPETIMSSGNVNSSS
Turning to `CC(Oc1cc(Cl)c(-c2nc(-c3cn4cc(C(F)(F)F)cc(Cl)c4n3)no2)cc1F)C(=O)O` (centres unmarked) [Example 205, 2-[(5-chloro-4-{3-[8-chloro-6-(trifluoromethyl)imidazo[1,2-a]pyridin-2-yl]-1,2,4-oxadiazol-5-yl}-2-fluorophenyl)oxy]propanoic acid], the EC50 was 100 to 500 nM.

On to `OCCN1CCC(Oc2ccc(-c3noc(-c4cn5cc(C(F)(F)F)cc(Cl)c5n4)n3)c(Cl)c2)C1` (centres unmarked) [Example 210, 2-{3-[(3-chloro-4-{5-[8-chloro-6-(trifluoromethyl)imidazo[1,2-a]pyridin-2-yl]-1,2,4-oxadiazol-3-yl}phenyl)oxy]pyrrolidin-1-yl}ethanol], for which the EC50 lay in the range of 1000 to 5000 nM.

For the compound `O=C(O)C1CN(Cc2ccc(-c3nc(-c4cn5cc(C(F)(F)F)cc(Cl)c5n4)no3)cc2)C1` [Example 231, 1-[(4-{3-[8-chloro-6-(trifluoromethyl)imidazo[1,2-a]pyridin-2-yl]-1,2,4-oxadiazol-5-yl}phenyl)methyl]azetidine-3-carboxylic acid], the half-maximal effective concentration (EC50) was 5000 to 10000 nM.

For `CS(=O)(=O)Nc1c(F)cc(-c2nc(-c3cn4cc(C(F)(F)F)cc(Cl)c4n3)no2)cc1Cl` [Example 236, N-(2-chloro-4-{3-[8-chloro-6-(trifluoromethyl)imidazo[1,2-a]pyridin-2-yl]-1,2,4-oxadiazol-5-yl}-6-fluorophenyl)methane sulfonamide], the 50% effective concentration (EC50) lay within 5000 to 10000 nM.

Take `Cc1cc(C2CC2C(=O)O)c(F)cc1-c1nc(-c2cn3cc(C(F)(F)F)cc(Cl)c3n2)no1` (centres unmarked) [Example 237, 2-(4-{3-[8-chloro-6-(trifluoromethyl)imidazo[1,2-a]pyridin-2-yl]-1,2,4-oxadiazol-5-yl}-2-fluoro-5-methylphenyl)cyclopropanecarboxylic acid]: the EC50 was in the range of 5000 to 10000 nM.

For the compound `CC(C)(Oc1ccc(-c2noc(-c3cn4cc(C(F)(F)F)cc(Cl)c4n3)n2)c(Cl)c1)C(=O)O` [Example 254, 2-[(3-chloro-4-{5-[8-chloro-6-(trifluoromethyl)imidazo[1,2-a]pyridin-2-yl]-1,2,4-oxadiazol-3-yl}phenyl)oxy]-2-methylpropanoic acid], the EC50 was 5000 to 10000 nM.

For `CC(C)(CO)Oc1c(F)cc(-c2noc(-c3cn4cc(C(F)(F)F)cc(Cl)c4n3)n2)cc1Cl` [Example 262, 2-[(2-chloro-4-{5-[8-chloro-6-(trifluoromethyl)imidazo[1,2-a]pyridin-2-yl]-1,2,4-oxadiazol-3-yl}-6-fluorophenyl)oxy]-2-methylpropan-1-ol], the EC50 fell in the range of 1000 to 5000 nM.

`CS(=O)(=O)Nc1c(F)cc(-c2noc(-c3cn4cc(C(F)(F)F)cc(Cl)c4n3)n2)cc1F` [Example 265, N-(4-{5-[8-chloro-6-(trifluoromethyl)imidazo[1,2-a]pyridin-2-yl]-1,2,4-oxadiazol-3-yl}-2,6-difluorophenyl)methanesulfonamide]: the EC50 was in the range of 500 to 1000 nM.

In the case of `CS(=O)(=O)Nc1ccc(-c2noc(-c3cn4cc(C#N)cc(Cl)c4n3)n2)c(Cl)c1` [Example 269, N-{3-chloro-4-[5-(8-chloro-6-cyanoimidazo[1,2-a]pyridin-2-yl)-1,2,4-oxadiazol-3-yl]phenyl}methanesulfonamide], the EC50 was in the range of 5000 to 10000 nM.

Staying with this assay, now noted: read-out: Assay 1 EC50.
For `Oc1cc(Cl)c(-c2noc(-c3cn4cc(C(F)(F)F)cc(Br)c4n3)n2)cc1Cl` [Example 197, 4-{5-[8-bromo-6-(trifluoromethyl)imidazo[1,2-a]pyridin-2-yl]-1,2,4-oxadiazol-3-yl}-2,5-dichlorophenol], the EC50 fell in the range of 100 to 500 nM.

As to `OCCCOc1ccc(-c2noc(-c3cn4cc(C(F)(F)F)cc(Cl)c4n3)n2)c(Cl)c1` [Example 199, 3-[(3-chloro-4-{5-[8-chloro-6-(trifluoromethyl)imidazo[1,2-a]pyridin-2-yl]-1,2,4-oxadiazol-3-yl}phenyl)oxy]propan-1-ol], the EC50 lay within 100 to 500 nM.

Turning to `CC(N)COc1ccc(-c2noc(-c3cn4cc(C(F)(F)F)cc(Cl)c4n3)n2)c(Cl)c1` (centres unmarked) [Example 200, 1-[(3-chloro-4-{5-[8-chloro-6-(trifluoromethyl)imidazo[1,2-a]pyridin-2-yl]-1,2,4-oxadiazol-3-yl}phenyl)oxy]propan-2-amine], the EC50 was 100 to 500 nM.

On to `O=C(O)C1CC1c1ccc(-c2noc(-c3cn4cc(C(F)(F)F)cc(Cl)c4n3)n2)cc1Cl` (centres unmarked) [Example 215, 2-(2-chloro-4-{5-[8-chloro-6-(trifluoromethyl)imidazo[1,2-a]pyridin-2-yl]-1,2,4-oxadiazol-3-yl}phenyl)cyclopropanecarboxylic acid], for which the concentration giving a half-maximal response (EC50) is at most 100 nM.

Regarding `CC(CO)Oc1cc(Cl)c(-c2nc(-c3cn4cc(C(F)(F)F)cc(Cl)c4n3)no2)cc1F` (centres unmarked) [Example 217, 2-[(5-chloro-4-{3-[8-chloro-6-(trifluoromethyl)imidazo[1,2-a]pyridin-2-yl]-1,2,4-oxadiazol-5-yl}-2-fluorophenyl)oxy]propan-1-ol], the EC50 is at most 100 nM.

On to `CS(=O)(=O)Nc1ccc(-c2nnc(-c3cn4cc(C(F)(F)F)cc(Cl)c4n3)o2)c(Cl)c1` [Example 218, N-(3-chloro-4-{5-[8-chloro-6-(trifluoromethyl)imidazo[1,2-a]pyridin-2-yl]-1,3,4-oxadiazol-2-yl}phenyl)methanesulfonamide], for which the EC50 fell in the range of 100 to 500 nM.

On to `CC(CC(=O)O)c1ccc(-c2nnc(-c3cn4cc(C(F)(F)F)cc(Cl)c4n3)o2)c(Cl)c1` (centres unmarked) [Example 219, 3-(3-chloro-4-{5-[8-chloro-6-(trifluoromethyl)imidazo[1,2-a]pyridin-2-yl]-1,3,4-oxadiazol-2-yl}phenyl)butanoic acid], for which the EC50 is at most 100 nM.

For the compound `NCC(O)COc1ccc(-c2noc(-c3cn4cc(C(F)(F)F)cc(Cl)c4n3)n2)c(Cl)c1` (centres unmarked) [Example 223, 1-amino-3-[(3-chloro-4-{5-[8-chloro-6-(trifluoromethyl)imidazo[1,2-a]pyridin-2-yl]-1,2,4-oxadiazol-3-yl}phenyl)oxy]propan-2-ol], the EC50 is at most 100 nM.

`Fc1cccc(F)c1-c1nc(-c2cn3cc(C(F)(F)F)cc(Cl)c3n2)no1` [Example 228, 8-chloro-2-[5-(2,6-difluorophenyl)-1,2,4-oxadiazol-3-yl]-6-(trifluoromethyl)imidazo[1,2-a]pyridine]: the EC50 fell in the range of 100 to 500 nM.

`FC(F)(F)c1cc(Cl)c2nc(-c3noc(-c4ccccc4Cl)n3)cn2c1` [Example 229, 8-chloro-2-[5-(2-chlorophenyl)-1,2,4-oxadiazol-3-yl]-6-(trifluoromethyl)imidazo[1,2-a]pyridine]: the concentration for a half-maximal effect (EC50) was at most 100 nM.

In the case of `Fc1ccccc1-c1nc(-c2cn3cc(C(F)(F)F)cc(Cl)c3n2)no1` [Example 230, 8-chloro-2-[5-(2-fluorophenyl)-1,2,4-oxadiazol-3-yl]-6-(trifluoromethyl)imidazo[1,2-a]pyridine], the EC50 is 100 to 500 nM.

Consider `Fc1ccc(-c2nc(-c3cn4cc(C(F)(F)F)cc(Cl)c4n3)no2)c(Cl)c1` [Example 232, 8-chloro-2-[5-(2-chloro-4-fluorophenyl)-1,2,4-oxadiazol-3-yl]-6-(trifluoromethyl)imidazo[1,2-a]pyridine], for which the EC50 fell in the range of 100 to 500 nM.

As to `CS(=O)(=O)Nc1cc(Cl)c(-c2nc(-c3cn4cc(C(F)(F)F)cc(Cl)c4n3)no2)cc1F` [Example 234, N-(5-chloro-4-{3-[8-chloro-6-(trifluoromethyl)imidazo[1,2-a]pyridin-2-yl]-1,2,4-oxadiazol-5-yl}-2-fluorophenyl)methanesulfonamide], the EC50 is at most 100 nM.

`NCC(O)COc1cc(Cl)c(-c2nnc(-c3cn4cc(C(F)(F)F)cc(Cl)c4n3)s2)cc1F` (centres unmarked) [Example 249, 1-amino-3-[(5-chloro-4-{5-[8-chloro-6-(trifluoromethyl)imidazo[1,2-a]pyridin-2-yl]-1,3,4-thiadiazol-2-yl}-2-fluorophenyl)oxy]propan-2-ol]: the 50% effective concentration (EC50) is at most 100 nM.

For the compound `O=C(O)COc1ccc(-c2noc(-c3cn4cc(C(F)(F)F)cc(Cl)c4n3)n2)c(Cl)c1` [Example 253, [(3-chloro-4-{5-[8-chloro-6-(trifluoromethyl)imidazo[1,2-a]pyridin-2-yl]-1,2,4-oxadiazol-3-yl}phenyl)oxy]acetic acid], the EC50 lay within 100 to 500 nM.

With `CC(CN)Oc1ccc(-c2noc(-c3cn4cc(C(F)(F)F)cc(Cl)c4n3)n2)c(Cl)c1` (centres unmarked) [Example 258, 2-[(3-chloro-4-{5-[8-chloro-6-(trifluoromethyl)imidazo[1,2-a]pyridin-2-yl]-1,2,4-oxadiazol-3-yl}phenyl)oxy]propan-1-amine], the concentration giving a half-maximal response (EC50) fell in the range of 100 to 500 nM.

For `Oc1cc(Cl)c(-c2noc(-c3cn4cc(C(F)(F)F)cc(Cl)c4n3)n2)cc1F` [Example 260, 5-chloro-4-{5-[8-chloro-6-(trifluoromethyl)imidazo[1,2-a]pyridin-2-yl]-1,2,4-oxadiazol-3-yl}-2-fluorophenol], the EC50 is at most 100 nM.

As for `CC(CO)Oc1c(F)cc(-c2noc(-c3cn4cc(C(F)(F)F)cc(Cl)c4n3)n2)cc1Cl` (centres unmarked) [Example 261, 2-[(2-chloro-4-{5-[8-chloro-6-(trifluoromethyl)imidazo[1,2-a]pyridin-2-yl]-1,2,4-oxadiazol-3-yl}-6-fluorophenyl)oxy]propan-1-ol], the EC50 was at most 100 nM.

`Fc1cc(-c2noc(-c3cn4cc(C(F)(F)F)cc(Cl)c4n3)n2)c(Cl)cc1OC1CCNC1` (centres unmarked) [Example 264, 8-chloro-2-{3-[2-chloro-5-fluoro-4-(pyrrolidin-3-yloxy)phenyl]-1,2,4-oxadiazol-5-yl}-6-(trifluoromethyl)imidazo[1,2-a]pyridine]: the half-maximal effective concentration (EC50) was at most 100 nM.

As to `CS(=O)(=O)Nc1c(F)cc(-c2noc(-c3cn4cc(C(F)(F)F)cc(Cl)c4n3)n2)cc1Cl` [Example 268, N-(2-chloro-4-{5-[8-chloro-6-(trifluoromethyl)imidazo[1,2-a]pyridin-2-yl]-1,2,4-oxadiazol-3-yl}-6-fluorophenyl)methane sulfonamide], the EC50 was 500 to 1000 nM.

The record behind these values is patent publication US20100160369A1, “S1P1 Agonists and Methods of Making And Using” (EXELIXIS, INC., priority 2008, published 2010).
